In PubChem BioAssay AID1259411 (Chemical Carcinogenesis Research Information System (CCRIS), 2018) one finds carcinogen call data, which are given here for three compounds.

SMILES strings stand for the structures. Activity calls are given as the source filed them. How the calls were made is not given here.

The data set relates to rodent carcinogenicity bioassays, tumor incidence. The data set is described as follows: CCRIS carcinogenicity studies. The method in brief: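 Archive of carcinogenicity, mutagenicity, tumor promotion and tumor inhibition results drawn from journals, NCI reports and other sources, expert-reviewed; covers 1985-2011 and is no longer updated.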

As for `O=c1cc[nH]c(=O)[nH]1`, the carcinogen call reads like this: (Species: MOUSE, Strain/Sex: B6C3F1/FEMALE, Route: ORAL, Dose: 0, 3% IN DIET FOR WK 1-6 OF STUDY THEN 0, 2.5% IN DIET FOR WK 7-96 (STUDY DURATION: 96 WK), Dose: 0, 3% IN DIET FOR WK 1-6 OF STUDY THEN 0, 2.5% IN DIET FOR WK 7-96 (STUDY DURATION: 96 WK), Tumor Site: Type of Lesion: URINARY BLADDER: TRANSITIONAL CELL CARCINOMA) “active; positive”; (Species: MOUSE, Strain/Sex: B6C3F1/MALE, Route: ORAL, Dose: 0, 3% IN DIET FOR WK 1-6 OF STUDY THEN 0, 2.5% IN DIET FOR WK 7-96 (STUDY DURATION: 96 WK), Dose: 0, 3% IN DIET FOR WK 1-6 OF STUDY THEN 0, 2.5% IN DIET FOR WK 7-96 (STUDY DURATION: 96 WK)) “inactive; negative”; (Species: RAT, Strain/Sex: F344/FEMALE, Route: ORAL, Dose: 0, 3% IN DIET FOR 104 WK (STUDY DURATION: 104 WK), Tumor Site: Type of Lesion: URINARY BLADDER: TRANSITIONAL CELL CARCINOMA) “active; positive”; (Species: RAT, Strain/Sex: F344/MALE, Route: ORAL, Dose: 0, 3% IN DIET FOR 104 WK (STUDY DURATION: 104 WK), Tumor Site: Type of Lesion: URINARY BLADDER: TRANSITIONAL CELL PAPILLOMA, TRANSITIONAL CELL CARCINOMA, RENAL PELVIS: PAPILLOMA, CARCINOMA) “active; positive”.
On to `Cc1ccc2ncccc2c1`, for which the carcinogen call (Species: RAT, Strain/Sex: F344/MALE,FEMALE, Route: ORAL, Dose: 0.05% IN DIET FOR 2 YR) was “inactive; negative”.
`CCCI`: where the note is “Species: MOUSE, Route: INTRAPERITONEAL, Tumor Site: Type of Lesion: LUNG”, the carcinogen call is “active; positive”.
